Source: ChEMBL document CHEMBL1212815, “Quinolines and structurally related heterocycles as antimalarials” (Eur J Med Chem, 2010)
Values after ≈ are worked out from the molar mass of the structure shown. Active and inactive are the calls of the source. The rule behind the calls is not given here.

Key:
Plasmodium falciparum [1] = test: Antimalarial activity against Plasmodium falciparum; format: functional, organism-based
Plasmodium falciparum [2] = test: Antimalarial activity against chloroquine-sensitive Plasmodium falciparum; format: functional, organism-based
Plasmodium falciparum [3] = test: Antimalarial activity against chloroquine-resistant Plasmodium falciparum; format: functional, organism-based
Plasmodium chabaudi = test: Antiplasmodial activity against Plasmodium chabaudi infected in mice (Mus musculus) assessed as reduction in parasitaemia measured at 50 mg/kg, perorally daily for 4 days; format: functional, organism-based; parameters: dose 50 mg/kg
Plasmodium berghei [4] = test: Antiplasmodial activity against Plasmodium berghei infected in perorally dosed mice (Mus musculus); format: functional, organism-based
[5] = Toxicity in mouse assessed as maximum tolerated dose; format: organism-based; conditions: in vivo, read-out: Activity
Plasmodium falciparum [6] = test: Antimalarial activity against chloroquine-resistant Plasmodium falciparum K1; format: functional, organism-based
Plasmodium falciparum [7] = test: Antimalarial activity against chloroquine-resistant Plasmodium falciparum FcB1; format: functional, organism-based; conditions: FcB1/Columbia
Plasmodium vinckei = test: Antiplasmodial activity against Plasmodium vinckei infected in mice (Mus musculus) assessed as reduction in parasitemia measured per day for 4 days; format: functional; conditions: 96 h
[8] = Dissociation constant, pKa of the compound; format: physicochemical
Plasmodium falciparum [9] = test: Antimalarial activity against chloroquine-resistant Plasmodium falciparum W2; format: functional, organism-based
[10] = Inhibition of Plasmodium falciparum DHFR
[11] = Inhibition of Plasmodium falciparum falcipain-2
Plasmodium falciparum [12] = test: Antimalarial activity against Plasmodium falciparum FAC8; format: functional, organism-based
Plasmodium falciparum [13] = test: Antimalarial activity against chloroquine-resistant Plasmodium falciparum HB3; format: functional, organism-based
Plasmodium falciparum [14] = test: Antimalarial activity against chloroquine-resistant Plasmodium falciparum Dd2; format: functional, organism-based
Plasmodium berghei [15] = test: Antiplasmodial activity against Plasmodium berghei infected in mice (Mus musculus) assessed as suppression of parasitaemia at 100 mg/kg, po; format: functional
Plasmodium falciparum [16] = test: Antimalarial activity against chloroquine-resistant Plasmodium falciparum D10; format: functional, organism-based
Plasmodium falciparum [17] = test: Antimalarial activity against chloroquine-resistant Plasmodium falciparum 3D7; format: functional, organism-based; conditions: read-out: ED50 (the source's name)
[18] = Inhibition of Plasmodium falciparum protein farnesyltransferase
Plasmepsin II = Plasmepsin II (Plasmodium falciparum, UniProt P46925); test: Inhibition of Plasmodium falciparum plasmepsin-2
Plasmodium falciparum [19] = test: Selectivity index, ratio of IC50 for Plasmodium falciparum D6 to IC50 for Plasmodium falciparum W2; format: functional

Plasmepsin II, sequence (P46925 whole entry): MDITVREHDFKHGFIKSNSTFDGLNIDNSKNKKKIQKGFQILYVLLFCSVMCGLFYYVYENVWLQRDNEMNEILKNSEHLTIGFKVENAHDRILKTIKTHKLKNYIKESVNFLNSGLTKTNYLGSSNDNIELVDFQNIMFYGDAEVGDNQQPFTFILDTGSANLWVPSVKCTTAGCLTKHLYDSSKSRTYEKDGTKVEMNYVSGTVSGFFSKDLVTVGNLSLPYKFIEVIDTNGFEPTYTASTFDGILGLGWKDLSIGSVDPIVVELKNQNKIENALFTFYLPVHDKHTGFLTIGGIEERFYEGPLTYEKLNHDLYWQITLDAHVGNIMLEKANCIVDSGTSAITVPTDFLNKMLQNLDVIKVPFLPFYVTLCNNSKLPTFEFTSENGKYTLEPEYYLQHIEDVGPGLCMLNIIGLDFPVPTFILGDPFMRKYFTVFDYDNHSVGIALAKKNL

`N=C(N)c1ccc(OCCCCCOc2ccc(C(=N)N)cc2)cc1` [PENTAMIDINE] gave an IC50 (Plasmodium falciparum [1]; Plasmodium falciparum) of 2.9 µg/mL and an IC90 (Plasmodium falciparum [1]; Plasmodium falciparum) of 6.5 µg/mL (≈ 19.1 µM).
`CCC(=O)CCCCC[C@@H]1NC(=O)[C@H]2CCCCN2C(=O)[C@H]([C@H](C)CC)NC(=O)[C@H](c2c[nH]c3ccccc3c2=O)NC1=O` showed an IC50 (Plasmodium falciparum [2]) of 0.04 µg/mL and an IC50 (Plasmodium falciparum [3]) of 0.04 µg/mL.
For `Clc1cccc(C(Nc2ccnc3cc(Cl)ccc23)c2ccc(CN3CCCC3)cc2)c1` (stereo not given), the Activity (Plasmodium chabaudi) was “Active”.
Molecule `Clc1ccc2c(NCCC[C@H]3CCN4CCCC[C@@H]4C3)ccnc2c1` has an IC50 (Plasmodium falciparum [3]) of 21 nM.
For `Clc1ccc2c(NCCNCC3CCC4(CC3)OOC3(CCCCC3)OO4)ccnc2c1`, the Activity (Plasmodium berghei [4]) was 80 mg/kg and the MTD [5] was > 960 mg/kg.
`CCN(CC)Cc1ccc(Nc2ccnc3cc(Cl)ccc23)cc1O` [ISOQUINE] showed an IC50 (Plasmodium falciparum [6]) of 6.01 nM.
`Clc1ccc2c(N3CCN(Cc4ccccc4Br)CC3)ccnc2c1` showed an IC50 (Plasmodium falciparum [3]) of 11400 nM.
`CCCCCOc1c(OC)cc(NC(C)CCCN)c2nccc(CC)c12` (stereo not given) gave an IC50 (Plasmodium falciparum [2]) of 0.0094 µg/mL and an IC50 (Plasmodium falciparum [3]) of 0.0097 µg/mL.
`CC(C)C1=C[C@H]2OC3(CCC(NCCNc4ccnc5cc(Cl)ccc45)CC3)OO[C@@]2(C)CC1.O=C(O)CC(O)(CC(=O)O)C(=O)O` (stereo not given in full) gave an IC50 (Plasmodium falciparum [7]) of 15 nM and an ED50 (Plasmodium vinckei) of 5 mg/kg.
In the case of `C1CC2CCC1CN2` [ISOQUINUCLIDINE], the pKa [8] is reported as 11.
In the case of `Clc1ccc2c(N[C@H]3CCN4CCCC[C@@H]4C3)ccnc2c1`, the IC50 (Plasmodium falciparum [9]) is reported as 23.3 nM and the IC50 (Plasmodium falciparum [3]) is reported as 21 nM.
In the case of `COc1cc2cc(/C=C/C(=O)c3ccc(Cl)cc3Cl)c(Cl)nc2cc1OC`, the IC50 (Plasmodium falciparum [1]; Plasmodium falciparum) is reported as 19000 nM.
`Clc1ccc2c(NCC[C@H]3CCN4CCCC[C@@H]4C3)ccnc2c1` showed an IC50 (Plasmodium falciparum [3]) of 21 nM.
In the case of `O=C(NCCNc1ccnc2cc(Cl)ccc12)C1CCC2(CC1)OOC1(CCCCC1)OO2`, the Activity (Plasmodium berghei [4]) is reported as 80 mg/kg and the MTD [5] is reported as > 960 mg/kg.
Molecule `CCOC(=O)c1c(C)nc2ccc(Cl)cc2c1-c1ccccc1` has an IC50 (Plasmodium falciparum [1]; Plasmodium falciparum) of 4.47 µg/mL.
`Cc1cc(NC(=O)CN2CCN(C)CC2)c2cc(NC(=O)Nc3cc(Cl)cc(Cl)c3)ccc2n1` showed an IC50 [10] of 0.0004 µg/mL (≈ 0.000798 µM).
Molecule `O=C1CSC(c2c(Cl)cccc2Cl)N1CCNc1ccnc2cc(Cl)ccc12` (stereo not given) has an IC50 (Plasmodium falciparum [3]) of 13 nM.
With `O=C1CCSC(c2ccc(Cl)cc2)N1CCCNc1ccnc2cc(Cl)ccc12` (stereo not given) the IC50 (Plasmodium falciparum [3]) was 13 nM.
Work on `O=C(CN(CCCNc1ccnc2cc(Cl)ccc12)C(=O)c1ccncc1)NC1CCCCC1` yielded an IC50 (Plasmodium falciparum [3]) of 73 nM.
In the case of `CC1(C(=O)NC2CCCCC2)CCCC(=O)N1CCCCCCNc1ccnc2cc(Cl)ccc12` (stereo not given), the IC50 [11] is reported as 17700 nM.
`Clc1ccc2c(N3CCNCC3)ccnc2c1` showed an IC50 (Plasmodium falciparum [2]) of 1020 nM and an IC50 (Plasmodium falciparum [3]) of 1020 nM.
For `COc1cc2cc(/C=C3\CCc4c(OC)cccc4C3=O)c(Cl)nc2cc1OC`, the “inhibition (INH)” value (Plasmodium falciparum [1]) was 50%.
Work on `CN(CC(O)CNCc1ccc(Cl)c(Cl)c1)S(=O)(=O)c1cccc2cnccc12` (stereo not given) yielded an MIC (Plasmodium falciparum [1]; Plasmodium falciparum) of 2 µg/mL (≈ 4.4 µM).
With `CCN(CC)CCCC(C)Nc1ccnc2c(NC(=O)CCCCC(=O)Nc3cccc4c(NC(C)CCCN(CC)CC)ccnc34)cccc12` (stereo not given) the IC50 (Plasmodium falciparum [12]) was 120 nM.
With `CCOC(=O)c1c(CN2CCCCC2)nc2ccc(Cl)cc2c1-c1ccccc1` the IC50 (Plasmodium falciparum [1]; Plasmodium falciparum) was 2.56 µg/mL.
In the case of `CCN(CCNc1ccnc2cc(Cl)ccc12)CCNS(=O)(=O)c1ccc2c(N(C)C)cccc2c1`, the IC50 (Plasmodium falciparum [13]) is reported as 17.5 nM and the IC50 (Plasmodium falciparum [14]) is reported as 22.7 nM.
`O=C1c2ccccc2SCN1CCNc1ccnc2cc(Cl)ccc12` gave an IC50 (Plasmodium falciparum [3]) of 13 nM.
Work on `Cc1cc(NC(=O)c2ccco2)c2cc(NC(=O)Nc3cccc(C#N)c3)ccc2n1` yielded an IC50 [10] of 0.0004 µg/mL (≈ 0.000972 µM).
`CC(C)(C)NCc1cc(Nc2ccnc3cc(Cl)ccc23)ccc1F` showed an ED50 (Plasmodium berghei [4]; Plasmodium berghei) of 5.3 mg/kg.
In the case of `COc1cc(NC(C)CCCN)c2nc(C(C)(C)C)ccc2c1` (stereo not given), the Activity (Plasmodium berghei [15]) is reported as 100%.
`CCN(CC)Cc1cc(N)cc(Nc2ccnc3cc(Cl)ccc23)c1` showed an IC50 (Plasmodium berghei [4]; Plasmodium berghei) of 18.1 nM.
In the case of `OC1(C(F)(F)F)CC(c2ccc(Cl)cc2)=NN1c1ccnc2cc(Cl)ccc12` (stereo not given), the IC50 (Plasmodium berghei [4]; Plasmodium berghei) is reported as 1.39 µg/mL.
`Clc1ccc2c(NC[C@H]3CCN4CCCC[C@@H]4C3)ccnc2c1` gave an IC50 (Plasmodium falciparum [3]) of 21 nM.
`CN(C)CCCN(CCCN(C)C)CCCN1c2ccccc2Sc2ccc(Cl)cc21` showed an IC50 (Plasmodium falciparum [16]) of 120 nM.
With `OC1(C(F)(F)F)CC(c2ccccc2)=NN1c1ccnc2cc(Cl)ccc12` (stereo not given) the IC50 (Plasmodium berghei [4]; Plasmodium berghei) was 1.06 µg/mL.
Molecule `Cn1cnc(S(=O)(=O)N(Cc2ccccc2)C2Cc3cc(C#N)ccc3N(Cc3cncn3C)C2)c1` (stereo not given) has an EC50 (Plasmodium falciparum [17]) of 5 nM and an IC50 [18] of 0.6 nM.
Molecule `CCCCNC(=O)C[C@H](O)[C@H](CC(C)C)NC(=O)[C@@H](NC(=O)c1ccc(Oc2ccc(C(=O)N[C@@H](CC(C)C)C(=O)N[C@@H](CCCCN)C(=O)NCCCC(C)Nc3cc(OC)cc4cccnc34)cc2)cc1)[C@@H](C)CC` (stereo not given in full) has an IC50 (Plasmepsin II) of 0.59 nM.
For `Clc1ccc2c(N3CCN(CCCN4CCN(c5ccnc6cc(Cl)ccc56)CC4)CC3)ccnc2c1` [PIPERAQUINE], the IC50 (Plasmodium falciparum [2]) was 36 nM.
In the case of `CN1CC2CCC1C(CNc1ccnc3cc(Cl)ccc13)C2` (stereo not given), the “Ratio IC50” value (Plasmodium falciparum [19]) is reported as >1200.
Work on `OC1(C(F)(F)F)CC(c2ccc(Br)cc2)=NN1c1ccnc2cc(Cl)ccc12` (stereo not given) yielded an IC50 (Plasmodium berghei [4]; Plasmodium berghei) of 1.39 µg/mL.
